{"source": "patent US10245249B2", "about": "“Pharmaceutical compositions comprising nitroxyl donors” (Cardioxyl Pharmaceuticals, Inc., priority 2013, dated 2019)", "key": {"[1]": {"test": "In vitro stability (half-life) in dog plasma", "format": "in vitro ADME", "conditions": "male, dog, plasma, pH 7.4, 5 μM, dog plasma pH 7.4 with anticoagulant, 37° C.; read-out: T1/2 (minutes) Dog", "description": "(§1) Certain compounds from Tables 1 and 2 and CXL-1020 were tested for their stability in phosphate buffered saline (PBS) and plasma. The assay system comprised (i) PBS, or plasma from rat, dog or human (at least 3 donors, male, pooled) at pH 7.4, and (ii) for tests conducted in plasma, an anticoagulant (sodium heparin or sodium citrate). Each test compound (5 μM) was incubated in PBS or plasma at 37° C. on a THERMOMIXER® with shaking. Three samples (n=3) were taken at each of seven sampling time points: 0, 10, 30, 60, 90, 180 and 360 minutes. The samples were immediately combined with 3 volumes (i.e., 3 times the volume of PBS or plasma) of acetonitrile containing 1% formic acid and an internal standard to terminate the reaction. AB SCIEX API 3000 LC-MS/MS analysis of the test compounds was performed without a standard curve. Half-lives (T1/2) of the test compounds were determined from graphs of the percent remaining values using the peak area response ratio. For compounds tested multiple times, the value provided in the Table represents an average of the replicate assays."}, "[2]": {"test": "In vitro stability (half-life) in phosphate buffered saline (PBS) pH 7.4", "format": "physicochemical", "conditions": "pH 7.4, 5 μM, PBS pH 7.4, 37° C., read-out: T1/2 (minutes) PBS", "outline": "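Compounds at 5 μM were incubated at 37° C in PBS or in rat, dog or pooled human plasma (heparin or citrate) at pH 7.4. Triplicates were sampled from 0 to 360 minutes and quenched in acetonitrile/formic acid. LC-MS/MS percent remaining gave T1/2, averaged over replicate runs.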"}, "[3]": {"test": "HNO production determined via N2O quantification (GC headspace analysis)", "format": "physicochemical", "conditions": "PBS, 37° C.", "outline": "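Compounds dissolved in argon-purged anhydrous DMF were added to argon-purged PBS in sealed vials at 37° C for the set incubation time; headspace N2O was measured by GC with micro-ECD. N2O gas and CXL-1020 served as standards, and relative N2O yield (%) was calculated per incubation time.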"}, "dogs": {"test_system": "dogs", "test": "Toxicological profile of compositions formulated at pH 4 or pH 6, 24 hour infusion at 3 μg/kg/min", "format": "in vivo", "conditions": "FIG. 4; for effect of increasing infusate pH from approximately 4 to approximately 6 on toxicology: 1:1 molar donor:CAPTISOL, infused at 3 μg/kg/min", "description": "For samples at a pH of 4, the compositions were prepared by admixing a 1:1 molar ratio of the nitroxyl donor:CAPTISOL®, lyophilizing the admixture, then diluting the lyophilized admixture into D5W. For samples at a pH of 6, the compositions were prepared by admixing a 1:1 molar ratio of the nitroxyl donor:CAPTISOL®, lyophilizing the admixture, then diluting the lyophilized admixture into D5W with 5 mM potassium phosphate. Compounds were infused at a rate of 3 μg/kg/min."}, "healthy volunteers": {"test_system": "healthy volunteers", "test": "24-hour continuous infusion dose escalation safety study in healthy volunteers", "format": "in vivo, human", "description": "To determine whether a local phlebitis would occur in humans upon longer duration dosing, a longer duration study was conducted in healthy volunteers. The longer duration study included a dose escalation study in which cohorts of 10 volunteers were to be sequentially administered a 24-hour continuous infusion of CXL-1020 at the dose rates of 10, 20, and 30 μg/kg/min with a safety assessment between each cohort. Each cohort consisted of 2 placebo and 8 active treatments with a sentinel pair of 1 active and 1 placebo followed by the main group of 1 placebo and 7 active treatments. The infusion was via a percutaneous catheter inserted into a forearm vein. The catheter was switched to the contralateral arm after 12 hours of infusion."}, "[4]": {"test": "In vitro stability (half-life) in human plasma", "format": "in vitro ADME", "conditions": "human plasma pH 7.4 with anticoagulant, 37° C.; for half-life at 5 μM: male, read-out: T1/2 (minutes) Human; for T1/2 (minutes) Human: 5 μM", "description": "as §1"}, "[5]": {"test": "In vitro stability (half-life) in rat plasma", "format": "in vitro ADME", "conditions": "male, rat, plasma, pH 7.4, 5 μM, rat plasma pH 7.4 with anticoagulant, 37° C.; read-out: T1/2 (minutes) Rat", "description": "as §1"}}}
{"compound": "Cn1ccc(S(=O)(=O)NO)n1", "note": "[Compound 85, N-Hydroxy-1-methyl-1H-pyrazole-3-sulfonamide]", "values": [{"measurement": "half-life at 5 μM", "setting": "[1]", "value": 72, "unit": "min"}, {"measurement": "half-life at 5 μM", "setting": "[2]", "value": 59, "unit": "min"}, {"measurement": "Relative N2O Yield (90 minutes incubation)", "setting": "[3]", "value": 33.5, "unit": "%"}]}
{"compound": "CS(=O)(=O)c1ccccc1S(=O)(=O)NO", "note": "[CXL-1020, N-hydroxy-2-methanesulfonylbenzene-1-sulfonamide, reference compound]", "values": [{"measurement": "effect of increasing infusate pH from approximately 4 to approximately 6 on toxicology", "setting": "dogs", "value": "improved the toxicology"}, {"measurement": "improvement of inflammatory profile on increasing infusate pH from 4 to 6", "setting": "dogs; dogs", "value": "approximately 3 fold"}, {"measurement": "tolerability", "setting": "healthy volunteers; 10 μg/kg/min for 24-hours", "value": "well tolerated"}, {"measurement": "adverse findings", "setting": "healthy volunteers; 20 μg/kg/min for 24-hours", "value": "mild findings (either clinical signs and/or changes in clinical pathology) in all 8 subjects consistent with infusion site phlebitis"}]}
{"compound": "O=S(=O)(NO)c1ccco1", "note": "[Compound 83, N-Hydroxyfuran-2-sulfonamide]", "values": [{"measurement": "half-life at 5 μM", "setting": "[1]", "value": 38, "unit": "min"}, {"measurement": "half-life at 5 μM", "setting": "[4]", "value": 16, "unit": "min"}, {"measurement": "half-life at 5 μM", "setting": "[2]", "value": 37, "unit": "min"}, {"measurement": "Relative N2O Yield (90 minutes incubation)", "setting": "[3]", "value": 42, "unit": "%"}, {"measurement": "Relative N2O Yield (360 minutes incubation)", "setting": "[3]", "value": 86, "unit": "%"}, {"measurement": "half-life at 5 μM", "setting": "[5]", "value": 43, "unit": "min"}]}
{"compound": "Cc1ccc(S(=O)(=O)NO)s1", "note": "[Compound 84, N-Hydroxy-5-methylthiophene-2-sulfonamide]", "values": [{"measurement": "half-life at 5 μM", "setting": "[1]", "value": 55, "unit": "min"}, {"measurement": "half-life at 5 μM", "setting": "[4]", "value": 60, "unit": "min"}, {"measurement": "half-life at 5 μM", "setting": "[2]", "value": 125, "unit": "min"}, {"measurement": "Relative N2O Yield (90 minutes incubation)", "setting": "[3]", "value": 52, "unit": "%"}, {"measurement": "Relative N2O Yield (360 minutes incubation)", "setting": "[3]", "value": 67, "unit": "%"}, {"measurement": "half-life at 5 μM", "setting": "[5]", "value": 65, "unit": "min"}]}
{"compound": "Cc1ccc(S(=O)(=O)NO)o1", "note": "[Compound 1, N-Hydroxy-5-methylfuran-2-sulfonamide]", "values": [{"measurement": "T1/2 (minutes) Human", "setting": "[4]", "value": 65, "unit": "min"}, {"measurement": "Relative N2O Yield (90 minutes incubation)", "setting": "[3]", "value": 52, "unit": "%"}]}
{"compound": "CS(=O)(=O)c1cccc(S(=O)(=O)NO)c1", "note": "[Compound 2, N-Hydroxy-3-methanesulfonylbenzene-1-sulfonamide]", "values": [{"measurement": "T1/2 (minutes) Human", "setting": "[4]", "value": 37, "unit": "min"}, {"measurement": "Relative N2O Yield (90 minutes incubation)", "setting": "[3]", "value": 82, "unit": "%"}, {"measurement": "Relative N2O Yield (360 minutes incubation)", "setting": "[3]", "value": 94, "unit": "%"}, {"measurement": "effect of increasing infusate pH from approximately 4 to approximately 6 on toxicology", "setting": "dogs", "value": "improved the toxicology"}]}
